Assay results reported in patent publication US6545032B1, “Synthesis of [3,5,7]-H-imidazo[1,5-a] imidazol-2(3H)-one compounds” (Torrey Pines Institute for Molecular Studies, priority 1999, dated 2003).

What was measured:
kappa opiate receptor = biological target: T1, kappa opiate receptor (Cavia porcellus, UniProt P41144); assay: Inhibition of tritiated U69,593 binding to the kappa opiate receptor in guinea pig brain homogenates; parameters: Mean: unit not given beside the values; conditions: 3 nm tritiated U69,593, guinea pig brain membranes; for % Bound: [3H]U69,593 bound; for % Inhibition: inhibition of [3H]U69,593 binding; for Mean: mean bound radioactivity of [3H]U69,593, 2.5 hours 25° C.; for Minus NSB: mean minus non-specific binding
T1 construct: guinea pig cortices and cerebella were homogenized in 40 mL of Buffer A; from tissue; host or cells: guinea pig cortices and cerebella, crude membrane suspension
T1 sequence (P41144 whole entry): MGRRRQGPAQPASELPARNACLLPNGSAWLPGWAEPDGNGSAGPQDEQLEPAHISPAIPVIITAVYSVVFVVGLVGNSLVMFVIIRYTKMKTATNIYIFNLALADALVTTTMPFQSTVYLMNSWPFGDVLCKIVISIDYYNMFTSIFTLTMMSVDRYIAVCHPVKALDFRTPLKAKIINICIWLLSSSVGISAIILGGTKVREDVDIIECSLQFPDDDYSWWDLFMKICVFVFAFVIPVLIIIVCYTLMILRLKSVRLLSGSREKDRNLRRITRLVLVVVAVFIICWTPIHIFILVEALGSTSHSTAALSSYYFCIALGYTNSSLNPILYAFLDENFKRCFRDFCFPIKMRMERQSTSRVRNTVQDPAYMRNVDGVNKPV
Experimental: The above-prepared library of individual compounds was screened for the ability to inhibit the binding of tritiated Compound U69,593 that is known to bind specifically to the kappa opiate receptor present in guinea pig brain homogenates following literature procedures. [Dooley et al., J. Biol. Chem., 273(30) 18848-18856 (1998)]
Briefly, guinea pig cortices and cerebella were homogenized in 40 mL of Buffer A [50 mM Tris-HCl, pH 7.4] at 4° C. Homogenates were centrifuged [Beckman® J2-HC, 35, 300×g] for 10 minutes. The pellets were resuspended in fresh buffer and incubated at 37° C. for 40 minutes. Following incubation, the suspensions were centrifuged as before, the resulting pellets resuspended in 100 volumes of Tris buffer, and the suspensions combined. Membrane suspensions were prepared and used on the same day. Protein content of the crude homogenates was determined by the method of Bradford, Anal. Biochem., 72:248-252 (1976).
Each assay tube contained 0.5 mL of membrane suspension, 3 nm of tritiated Compound U69,593 [(5a,7a,8b)-(−)-N-methyl-N-(7-(1-pyrrolidinyl)-1-oxaspiro(4,5)dec-8-yl)-benzeneacetamide; Lahti et al., European J. Pharmacol., 109:281-284(199-85)] in a total volume of 0.65 mL. Assay tubes were incubated for 2.5 hours a 25° C. The assay was then filtered through GF-B filters on a Tomec™ harvester (Orange, Conn.). The filters were subsequently washed with 6 mL of 50 mM Tris-HC1, pH 7.4 at 4° C. Bound radioactivity was counted on a Wallace™ Beta-plate Liquid Scintillation Counter (Piscataway, N.J.). Unlabeled U50, 488 [(trans-(dl)-3,4-dichloro-N-methyl-N-[2-(1-pyrrolidinyl)cyclohexyl]-benzeneacetamide) methane sulfonate hydrate; Lahti et al., Life Sci., 31:2257-xx(1982) and Von Voightlander et al., J. Pharmacol. Exp. Ther., 224:7 (1983)] was used as a competitive inhibitor to generate a standard curve and determine nonspecific binding. The results of these assays are shown in the table, below, wherein the “R” groups are as discussed for Example 1.

mu opiate receptor = biological target: T2, mu opiate receptor (Rattus norvegicus, UniProt P33535); assay: Inhibition of [3H]DAMGO binding to the mu opiate receptor in rat brain homogenates; parameters: Mean: unit not given beside the values; conditions: 0.08 mg of compound per milliliter, 7 nM 3H-labeled DAMGO, rat brain membranes; for % Bound: [3H]DAMGO bound; for Mean: mean bound radioactivity of [3H]DAMGO; for Minus NSB*: mean minus non-specific binding; for % Inhibition: percent inhibition of DAMGO binding
T2 construct: from tissue; host or cells: rat brain membranes/homogenate
T2 sequence (P33535 whole entry): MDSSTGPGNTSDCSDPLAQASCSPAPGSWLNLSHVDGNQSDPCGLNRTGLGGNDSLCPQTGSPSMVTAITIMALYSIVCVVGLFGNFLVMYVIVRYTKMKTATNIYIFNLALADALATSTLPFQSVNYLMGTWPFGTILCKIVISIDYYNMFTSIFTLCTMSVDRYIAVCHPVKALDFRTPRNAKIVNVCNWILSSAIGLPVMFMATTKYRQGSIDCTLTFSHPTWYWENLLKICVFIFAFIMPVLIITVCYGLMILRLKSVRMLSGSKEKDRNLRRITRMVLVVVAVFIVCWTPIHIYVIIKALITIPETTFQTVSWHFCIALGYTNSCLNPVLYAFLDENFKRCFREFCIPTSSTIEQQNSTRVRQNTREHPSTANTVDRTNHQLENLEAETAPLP
Experimental: The previously prepared [3,5,7]-1H-imidazo[1,5-a]-imidazol-2(3H)-one library of individual compounds was screened for the ability to inhibit the binding of [^3H] [D-Ala^2,MePhe^4,Gly^5-ol]enkephalin (DAMGO) that is known to bind specifically to the mu opiate receptor present in rat brain homogenates following literature procedures. [Dooley et al., Science, 266:2019(1994); U.S. Pat. No. 5,763,193.]
Preparation of rat brain membranes and the receptor binding assay were carried out as described in Dooley et al., Life Sci., 52:1509(1993). Each tube in the screening assay contained 0.08 mg of compound mixture per milliliter, 0.5 mL of membrane suspension (0.1 mg of protein), 7 nM ^3H-labeled DAMGO [specific activity 36 Ci/mmol, obtained from the National Institute on Drug Abuse (NIDA) repository through Chiron Mimotopes PeptideSystems (San Diego, Calif.) and […] of peptide mixture in 50 mM Tris-HCl buffer (pH 7.4). The final volume was 0.65 mL. The results of these screenings are shown in the table, below, wherein the “R” groups are as discussed for Example 1. The results are reported as percent inhibition of DAMGO binding.

Structure (SMILES) | % Bound (kappa opiate receptor) [%] | % Inhibition (kappa opiate receptor) [%] | Mean (kappa opiate receptor) | Minus NSB (kappa opiate receptor) | % Bound (mu opiate receptor) [%] | Mean (mu opiate receptor) | Minus NSB* (mu opiate receptor) | % Inhibition (mu opiate receptor) [%]
Cc1nc(CCCNC(=N)N)c2n1C(C(C)C)C(=O)N2 (stereo not shown) [Pool 42] | 48.200 | 51.800 | 1406.35 | 499.35 | 29 | 581.65 | 273.65 | 71
CCCCCCc1nc(C(C)C)c2n1C(C(C)C)C(=O)N2 (racemic) [Pool 122] | 51.805 | 48.195 | 1443.7 | 536.70 | 53 | 817.3 | 509.30 | 47
CC(C)c1nc(CCC2CCCC2)n2c1NC(=O)C2C(C)C (stereo not shown) [Pool 146] | 69.088 | 30.912 | 1622.75 | 715.75 | 67 | 945.85 | 637.85 | 33
CC(C)c1nc(C(C2CCCCC2)C2CCCCC2)n2c1NC(=O)C2C(C)C (stereo not shown) [Pool 139] | 58.779 | 41.221 | 1515.95 | 608.95 | 65 | 928.85 | 620.85 | 35
CC1CCC(Cc2nc(C(C)C)c3n2C(C(C)C)C(=O)N3)CC1 (stereo not shown) [Pool 152] | 58.697 | 41.303 | 1515.1 | 608.10 | 48 | 770.1 | 462.10 | 52
CC(C)c1nc(Cc2cccc(C(F)(F)F)c2)n2c1NC(=O)C2C(C)C (racemic) [Pool 73] | 78.205 | 21.795 | 1717.2 | 810.20 | 69 | 967.25 | 659.25 | 31
Cc1nc(C(C)C)c2n1C(C(C)C)C(=O)N2 (stereo not shown) [Pool 52] | 74.744 | 25.256 | 1681.35 | 774.35 | 68 | 959.85 | 651.85 | 32
CC(C)c1nc(CC2CCCCC2)n2c1NC(=O)C2C(C)C (stereo not shown) [Pool 138] | 70.685 | 29.315 | 1639.3 | 732.30 | 60 | 877.8 | 569.80 | 40
COc1ccc(Cc2nc(C(C)C)c3n2C(C(C)C)C(=O)N3)cc1 (racemic) [Pool 78] | 87.360 | 12.640 | 1812.05 | 905.05 | 49 | 775.2 | 467.20 | 51
CCOc1ccc(Cc2nc(C(C)C)c3n2C(C(C)C)C(=O)N3)cc1 (racemic) [Pool 79] | 90.338 | 9.662 | 1842.9 | 935.90 | 65 | 929.1 | 621.10 | 35
Cc1nc(C(C)C)c2n1C(C(C)C)C(=O)N2 (stereo not shown) [Pool 36] | 84.976 | 15.024 | 1787.35 | 880.35 | 66 | 940.6 | 632.60 | 34
